Earlier results in patent publication EP3290412A1, “HIV-1 NUCLEOCAPSID INHIBITORS” (Università degli Studi di Siena, priority 2016, dated 2018).

Tested on: NIH Catalogue Number: 11845
Details: INI resistant strain 11845; cited from earlier work

Which Level of resistance does the source give for `COc1cc2c(cc1Cc1cccc(Cl)c1F)c(=O)c(C(=O)O)cn2[C@H](CO)C(C)C` [Elvitegravir™, Elvitegravir] here?
Its Level of resistance is “Intermediate”.
